Test results as given in patent US6242455A, “Pyrimidin-2,4,6-trion derivatives, method for producing the same and medicinal products containing these compounds” (Roche Diagnostics GmbH, priority 1997, dated 2001).

Biological target: T1, Angiotensin-converting enzyme from rabbit lung (Oryctolagus cuniculus, UniProt P12822)
T1 construct: purchased Fluka; host or cells: rabbit lung
T1 sequence (P12822 34-1310): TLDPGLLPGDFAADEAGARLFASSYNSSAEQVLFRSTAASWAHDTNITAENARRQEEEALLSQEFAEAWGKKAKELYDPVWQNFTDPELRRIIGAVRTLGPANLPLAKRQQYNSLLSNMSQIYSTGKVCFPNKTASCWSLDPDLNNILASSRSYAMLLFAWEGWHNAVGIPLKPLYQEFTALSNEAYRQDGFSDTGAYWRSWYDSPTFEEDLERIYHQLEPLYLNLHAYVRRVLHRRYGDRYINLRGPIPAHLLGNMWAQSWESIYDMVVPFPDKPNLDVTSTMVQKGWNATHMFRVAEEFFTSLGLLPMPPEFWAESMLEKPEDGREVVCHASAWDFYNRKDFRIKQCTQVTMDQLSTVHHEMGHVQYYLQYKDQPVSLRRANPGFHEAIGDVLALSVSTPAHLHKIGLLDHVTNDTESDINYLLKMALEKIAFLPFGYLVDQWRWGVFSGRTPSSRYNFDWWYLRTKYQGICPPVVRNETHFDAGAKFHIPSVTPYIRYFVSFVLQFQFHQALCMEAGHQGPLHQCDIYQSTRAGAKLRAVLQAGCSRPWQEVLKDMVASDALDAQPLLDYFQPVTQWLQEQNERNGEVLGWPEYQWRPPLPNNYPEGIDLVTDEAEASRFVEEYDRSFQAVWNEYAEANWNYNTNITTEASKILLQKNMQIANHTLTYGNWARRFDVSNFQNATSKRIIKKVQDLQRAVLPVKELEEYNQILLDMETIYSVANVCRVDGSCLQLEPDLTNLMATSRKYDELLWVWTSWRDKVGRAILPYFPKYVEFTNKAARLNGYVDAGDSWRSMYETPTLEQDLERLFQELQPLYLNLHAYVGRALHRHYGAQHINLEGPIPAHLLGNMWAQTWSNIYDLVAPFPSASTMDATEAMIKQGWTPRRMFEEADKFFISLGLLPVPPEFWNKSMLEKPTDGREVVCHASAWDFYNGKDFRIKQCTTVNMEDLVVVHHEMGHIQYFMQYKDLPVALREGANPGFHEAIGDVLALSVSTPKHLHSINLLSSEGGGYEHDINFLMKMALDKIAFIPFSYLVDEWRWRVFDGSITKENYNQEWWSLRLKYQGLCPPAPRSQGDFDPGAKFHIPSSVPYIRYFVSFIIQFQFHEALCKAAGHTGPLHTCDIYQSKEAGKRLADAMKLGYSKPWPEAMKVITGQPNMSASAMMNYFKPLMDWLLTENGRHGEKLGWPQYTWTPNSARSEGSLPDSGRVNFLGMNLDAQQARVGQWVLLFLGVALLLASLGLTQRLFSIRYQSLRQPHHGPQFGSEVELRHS
Experiment: ACE-fluorescence assay for the determination of the IC50 value
Type: biochemical
Conditions: substrate Abz-Gly-Phe(NO2)-Pro 20 μM, pH 8.0, 36° C., inhibitor 0 to 100 μM
Description: ACE-fluorescence assay for the determination of the IC50 value
Literature: Amos Carmel and Arieh Yaron, Eur. J. Biochem. […], 265-273 (1978). An Intramolecularly Quenched Fluorescent Tripeptide as a Fluorogenic Substrate of Angiotensin-I-Converting Enzyme and of Bacterial Dipeptidyl Carboxypeptidase.
Enzyme: Angiotensin-converting enzyme from rabbit lung (EC.3.4.15.1), Fluka (3.3 U/μg)
Substrate: Abz-Gly-Phe(NO2)-Pro, M-1100 Bachem
Assay buffer: 0.05 Tris-HCl
Excitation: 360 nm (excitation slit: 8 nm)
Emission: 410 nm (emission slit: 10 nm)
Substrate stock solution: […] in assay buffer
Enzyme stock solution: […] assay buffer
Inhibitor stock solution: 1 mM in DMSO diluted in assay buffer
Measuring cuvette: 50 μl substrate (yields 20 μM)
0 to 100 μl inhibitor stock solution […]
fill up remainder to 1 ml
Substrate, inhibitor and buffer are added together in a heated measuring cuvette and the enzyme reaction is started by addition of enzyme. The increase in fluorescence over time (200 s) is monitored in a time scan. The respective initial rate is determined from the increase.
The IC50 value can be determined as follows:
V0 =initial rate without inhibitor
[I]=inhibitor concentration

## CC(C)(C)C(C(=O)O)C(=O)NC1(c2ccccc2)C(=O)NC(=O)NC1=O (stereo not shown) [Example 4, 3. 3-Dimethyl-2-(2,4,6-trioxo-5-phenyl-hexahydro-pyrimidin-5-ylcarbamoyl)-butyric acid]
  IC50: 159 µM
